Results taken from the supplement of paper PMC10307832.

What was measured:
Assay in all cases: relative viability (nuclei count vs DMSO), 5 days (fraction); higher = more cells survive
[1] = compound: C=CC(=O)N1CCC[C@@H](n2nc(-c3ccc(Oc4ccccc4)cc3)c3c(N)ncnc32)C1 [Ibrutinib] + CCNC(=O)c1noc(-c2cc(C(C)C)c(O)cc2O)c1-c1ccc(CN2CCOCC2)cc1 [Luminespib] (partner 0.01 µM)
In short: (§1)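 For relative viability, nuclei counts in treated wells were divided by those in vehicle wells. Lung cancer cell lines had been pin-tool dosed in 1536-well plates the day after seeding and cultured for 5 days, then fixed and stained in one step (final 0.05% Triton X-100, 1% formaldehyde, 1 ug/ml Hoechst) and imaged at 4×. Doses were one drug alone or a fixed anchor-drug dose plus five library-drug doses (not always all listed) in √10 steps, and values are duplicate-plate medians.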

[2] = compound: C=CC(=O)N1CCC[C@@H](n2nc(-c3ccc(Oc4ccccc4)cc3)c3c(N)ncnc32)C1 [Ibrutinib] + NC(=O)Nc1cc(-c2cccc(F)c2)sc1C(=O)N[C@H]1CCCNC1 [AZD7762] (partner 0.2 µM)
In short: as §1

[3] = compound: C=CC(=O)N1CCC[C@@H](n2nc(-c3ccc(Oc4ccccc4)cc3)c3c(N)ncnc32)C1 [Ibrutinib] + Nc1ncn([C@H]2C[C@H](O)[C@@H](CO)O2)c(=O)n1 [Decitabine] (partner 2 µM)
In short: as §1

[4] = compound: C=CCc1cccc(/C=N/NC(=O)CN2CCN(Cc3ccccc3)CC2)c1O [PAC-1] + CC(C)C[C@H](NC(=O)[C@H](Cc1ccccc1)NC(=O)c1cnccn1)B(O)O [Bortezomib] (partner 0.002 µM)
In short: as §1

Cell Line | relative viability ([1]; first compound 0.005 µM) | relative viability ([1]; first compound 0.01581 µM) | relative viability ([1]; first compound 0.05 µM) | relative viability ([1]; first compound 0.1581 µM) | relative viability ([1]; first compound 0.5 µM) | relative viability ([2]; first compound 0.005 µM) | relative viability ([2]; first compound 0.01581 µM) | relative viability ([2]; first compound 0.05 µM) | relative viability ([2]; first compound 0.1581 µM) | relative viability ([2]; first compound 0.5 µM) | relative viability ([3]; first compound 0.005 µM) | relative viability ([3]; first compound 0.01581 µM) | relative viability ([3]; first compound 0.05 µM) | relative viability ([3]; first compound 0.1581 µM) | relative viability ([3]; first compound 0.5 µM) | relative viability ([4]; first compound 0.02 µM) | relative viability ([4]; first compound 0.06325 µM) | relative viability ([4]; first compound 0.2 µM) | relative viability ([4]; first compound 2 µM)
LCLC-97TM1 | 0.795 | 0.656 | 0.798 | 0.867 | 0.735 | 0.276 | 0.326 | 0.317 | 0.268 | 0.219 | 0.251 | 0.226 | 0.236 | 0.205 | 0.208 | 0.437 | 0.901 | 0.668 | 0.794
LCLC-103H | 1 | 0.905 | 0.896 | 1.09 | 0.897 | 0.829 | 0.706 | 0.733 | 0.835 | 0.745 | 0.685 | 0.705 | 0.754 | 0.759 | 0.725 | 1.17 | 1.1 | 1.1 | 1.18
LOU-NH91 | 0.333 | 0.346 | 0.267 | 0.294 | 0.309 | 0.684 | 0.701 | 0.717 | 0.801 | 0.754 | 0.786 | 0.745 | 0.762 | 0.807 | 0.648 | 0.452 | 0.475 | 0.469 | 0.526
LU99A | 0.191 | 0.24 | 0.285 | 0.249 | 0.248 | 0.258 | 0.357 | 0.338 | 0.438 | 0.288 | 0.857 | 0.796 | 0.947 | 0.937 | 0.874 | 1.1 | 1.11 | 1.07 | 1.05
LXF-289 | 0.685 | 0.673 | 0.722 | 0.692 | 0.643 | 1.22 | 1.07 | 1.06 | 1.1 | 1.15 | 0.357 | 0.295 | 0.381 | 0.38 | 0.342 | 0.983 | 1.01 | 1.01 | 0.995
NCI-H23 | – | 0.22 | – | – | 0.248 | 0.263 | 0.237 | 0.234 | 0.218 | 0.283 | 0.313 | 0.343 | 0.339 | 0.298 | 0.339 | 0.956 | 1.01 | 0.866 | 0.995
NCI-H322M | 0.648 | 0.726 | 0.785 | 0.752 | 0.473 | 0.432 | 0.527 | 0.514 | 0.486 | 0.502 | 0.662 | 0.637 | 0.664 | 0.634 | 0.505 | 1.21 | 1.31 | 1.28 | 1.07
NCI-H441 | 0.362 | 0.359 | 0.266 | 0.36 | 0.235 | 1.18 | 1.15 | 1.22 | 1.28 | 0.952 | 0.255 | 0.241 | 0.231 | 0.211 | 0.25 | 0.57 | 0.358 | 0.265 | 0.778
NCI-H460 | 0.0343 | 0.0329 | 0.0328 | 0.0586 | 0.0349 | 0.634 | 0.563 | 0.646 | 0.622 | 0.659 | 0.541 | 0.419 | 0.503 | 0.497 | 0.551 | 1.3 | 1.02 | 0.859 | 1.14
NCI-H596 | – | 0.894 | 0.77 | 0.959 | 0.805 | 0.996 | 1.15 | 1.32 | – | 0.928 | 1.12 | 1.1 | 1.88 | 0.936 | 0.942 | 0.895 | 1.09 | 1.56 | 1.04
NCI-H647 | – | 0.14 | 0.239 | 0.181 | 0.196 | 0.413 | 0.534 | 0.529 | 0.3 | 0.497 | 0.341 | 0.331 | 0.411 | 0.244 | 0.409 | 0.771 | 0.924 | 0.765 | 0.924
NCI-H650 | 0.775 | 0.757 | 0.737 | 0.885 | 0.949 | 1.02 | 0.858 | 0.94 | 1.15 | 1.02 | 0.384 | 0.325 | 0.335 | 0.37 | 0.319 | 0.755 | 0.871 | 0.736 | 0.735
NCI-H727 | – | 0.597 | 0.282 | – | 0.516 | 0.404 | 0.664 | 0.524 | 0.416 | 0.555 | 0.617 | 1.04 | 0.806 | 0.506 | 0.804 | 0.905 | 0.925 | 0.944 | 0.818
NCI-H838 | 0.288 | – | 0.266 | 0.326 | 0.325 | 0.739 | 0.876 | 0.985 | 0.946 | 0.943 | 0.552 | 0.466 | 0.497 | 0.476 | 0.451 | 0.732 | 0.717 | 0.644 | 0.711
NCI-H1355 | 0.55 | 0.648 | 0.715 | 0.858 | 0.517 | – | 0.768 | 0.846 | 0.9 | 0.72 | – | 0.355 | 0.367 | 0.318 | 0.363 | 1.15 | 1.28 | 1.14 | 1.2
NCI-H1437 | 1.13 | 1.16 | 1.11 | 1.14 | 1.12 | 1.12 | 1.12 | 1.08 | 1.08 | 1.16 | 0.59 | 0.559 | 0.507 | 0.609 | 0.53 | 0.513 | 0.525 | 0.414 | 0.383
